PubChem BioAssay (NCI)
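Cells were grown in 96-well plates and exposed to each compound for 48 hours at five concentrations; endpoints were interpolated linearly between bracketing concentrations, or set to the highest concentration if not reached. TGI denotes the concentration required for complete inhibition of growth.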 *1 amine or outer side, *2 acyl side, *3 side chain or, on linkers, in order; H or OH if unused. Where a SMILES comes first, the peptide text is derived from it. [ ]: non-standard residue; d: D form. The star is where a group is joined. X31 = CC(=O)N(C)SCC(N[*:1])C(=O)[*:2]; X47 = CC(=O)N(C)SCC(N*)/C(O)=N\O; Cbz = O=C(OCc1ccccc1)*; Bn = c1ccc(C*)cc1; For = O=C*

Legend:
Experiment in all cases: DTP human tumour cell line panel, 48 h
HCT-116 colon = system: HCT-116 colon
UO-31 renal = system: UO-31 renal
M14 melanoma = system: M14 melanoma
CCRF-CEM leukemia = system: CCRF-CEM leukemia
NCI/ADR-RES ovarian = system: NCI/ADR-RES ovarian
U251 CNS = system: U251 CNS
SK-OV-3 ovarian = system: SK-OV-3 ovarian
MDA-MB-231 breast = system: MDA-MB-231 breast
OVCAR-3 ovarian = system: OVCAR-3 ovarian

SMILES	TGI (HCT-116 colon)	TGI (UO-31 renal)	TGI (M14 melanoma)	TGI (CCRF-CEM leukemia)	TGI (NCI/ADR-RES ovarian)	TGI (U251 CNS)	TGI (SK-OV-3 ovarian)	TGI (MDA-MB-231 breast)	TGI (OVCAR-3 ovarian)
C=CCOC(=O)N1[C@H]2C#C/C=C\C#C[C@]3(O)C(=O)C[C@H](C)[C@]24O[C@]43C2=CC(=O)C=CC21OC (stereo not given in full)	44.6 µM	> 100 µM	> 100 µM	79.5 µM	> 100 µM	> 100 µM	> 100 µM	85.9 µM	
CC1=NCCN=C(C)C1N=Nc1ccc2nc(C)[nH]c2c1	38 µM		16.8 µM	16.8 µM	47.9 µM	> 100 µM	39.2 µM	31.2 µM	44.3 µM
O=c1cc(NCCCCCO)[nH]c(=O)[nH]1	> 100 µM	> 100 µM	> 100 µM	> 100 µM	> 100 µM	> 100 µM	> 100 µM	> 100 µM	> 100 µM
CCOC(=O)C1(C(N)=O)C(=O)c2ccncc2C1=O (stereo not given)	> 100 µM	> 100 µM	> 100 µM	> 100 µM	> 100 µM	> 100 µM	> 100 µM	> 100 µM	> 100 µM
COc1cc(C=O)ccc1Oc1nnnn1-c1ccccc1	> 100 µM	> 100 µM	> 100 µM	52.4 µM	> 100 µM	> 100 µM	> 100 µM	> 100 µM	> 100 µM
COc1ccc(/C=C2\CCC(C)C3=C(c4ccc(OC)c(OC)c4)C(C#N)=C(N)OC32)cc1OC (stereo not given)	20.2 µM	8.4 µM	15 µM	19.2 µM	39.4 µM	> 100 µM	36.4 µM	17.5 µM	48.3 µM
CN(C)c1ccc(/C=c2/c3ccccc3n3c2c2ccccc2[n+]3C)cc1	2.74 µM	3.9 µM	1.69 µM	1.23 µM	32.8 µM	1.46 µM	14 µM	2.42 µM	4.42 µM
C=CCn1c(=O)c2ccccc2[n+]2c(C)c(C(=O)OCC)sc12	> 100 µM	> 100 µM	> 100 µM	> 100 µM	> 100 µM	> 100 µM	> 100 µM	> 100 µM	> 100 µM
COc1ccc(/C=C2\CCCC(CN(C)C)C2=O)cc1 (stereo not given)	3.19 µM	8.57 µM	4.21 µM	> 100 µM	6.56 µM	3.88 µM	23.4 µM	8.61 µM	4.99 µM
COc1ccc(C2=CC(c3ccccc3)n3nnnc3N2)cc1 (stereo not given)	> 100 µM	> 100 µM	> 100 µM	> 100 µM	> 100 µM	> 100 µM	> 100 µM	> 100 µM	> 100 µM
O=C(O)c1cc2ccccc2c(N=Nc2ccccc2)c1O	> 100 µM	> 100 µM	37.9 µM	> 100 µM	90.4 µM	45.1 µM	> 100 µM	> 100 µM	> 100 µM
Cc1c(NC(=S)NN)c(=O)n(-c2ccccc2)n1C	> 100 µM	> 100 µM	> 100 µM	> 100 µM	> 100 µM	> 100 µM	> 100 µM	> 100 µM	> 100 µM
CC(C)(C)OC(=O)NCCCCC(N)C(N)=O (stereo not given)	> 100 µM	> 100 µM	> 100 µM	> 100 µM	> 100 µM	> 100 µM	> 100 µM	> 100 µM	> 100 µM
ClCCCN(CCCCl)c1ccc(C=Nc2cccc(Cl)c2)cc1	> 66.6 µM	88.3 µM	> 76.3 µM	65.2 µM	52.5 µM	> 89.1 µM	> 100 µM	> 73.7 µM	57.9 µM
NCCSc1nc2ccccc2s1	> 100 µM	> 100 µM	> 100 µM	> 100 µM	> 100 µM	48.3 µM	79.7 µM	> 100 µM	> 100 µM
CCCCCCCC1C(C)c2c([nH]c3ccccc23)C2C(=O)N(c3ccc(OC)cc3)C(=O)C21 (stereo not given)	3.61 µM	6.86 µM	> 9.51 µM	> 6.6 µM	3.02 µM	3.97 µM	> 10 µM	> 7.84 µM	6.71 µM
O=C(Nc1nnc(-c2ccccc2)o1)C(SC(=S)N1CCCCC1)c1ccccc1 (stereo not given)	32.1 µM	26.9 µM	27.4 µM	14.1 µM	33.2 µM	87.2 µM	> 100 µM	> 100 µM	43.4 µM
CCC1=NC(N/N=C/c2ccco2)=N/C1=C\c1ccccc1O	56.8 µM	> 100 µM	> 100 µM	70.4 µM	> 100 µM	> 100 µM	> 100 µM	> 100 µM	
Cc1c2c(c(C)n1-c1ccccc1)C(=O)N(CCCCN1CCN(c3ccccc3)CC1)C2=O	20.9 µM	24.8 µM	79.7 µM	26.1 µM	83.9 µM	84.9 µM	> 100 µM	24.1 µM	88.5 µM
CC(=O)OC1=c2ccccc2=C(O)C2C1C=NN2C(C)=O (stereo not given)	> 100 µM	> 100 µM	> 100 µM	> 100 µM	> 100 µM	> 100 µM	> 100 µM	> 100 µM	> 100 µM
C/C=C/[C@H]1O[C@@](O)([C@@H](C)[C@H](O)[C@H](C)[C@H]2OC(=O)/C(OC)=C/C(C)=C/[C@@H](C)[C@@H](O)[C@@H](CC)[C@@H](O)[C@H](C)C/C(C)=C/C=C/[C@@H]2OC)C[C@H](OC2CC(O)C(O)C(C)O2)[C@@H]1C (stereo not given in full)	4.15 µM	0.29 µM	< 0.0075 µM	< 0.0075 µM	17.8 µM	11.4 µM	16.9 µM	13.9 µM	6.27 µM
CC(=O)N(C)SCC(NC(=O)C(Cc1ccccc1)NC(=O)OCc1ccccc1)C(=O)NC(Cc1ccccc1)C(=O)NC(Cc1cn(C=O)c2ccccc12)C(=O)NC(CCCCNC(=O)OCc1ccccc1)C(=O)NC(C(=O)NC(CSN(C)C(C)=O)/C(O)=N\O)C(C)OCc1ccccc1 (stereo not given) (Cbz-F[X31]FW(For)K(Cbz)T(Bn)-X47; configuration not given here)	> 100 µM	> 100 µM	> 100 µM	> 100 µM	> 100 µM	> 100 µM	> 100 µM	> 100 µM	> 100 µM
